Source: PubChem BioAssay (NCI)
Values joined by “and” are separate entries in the source; they are usually repeats but may differ in a detail not shown here. Identical values can stand only once.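 Step 1: Grow cells in 96-well plates. Step 2: Expose to compound for 48 hours at 5 concentrations. Step 3: Interpolate endpoints linearly; if unreached, use highest concentration. GI50 marks 50% less growth. TGI: concentration producing complete growth inhibition.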

Experiments:
Test in all cases: DTP human tumour cell line panel, 48 h
[1] = test system: RPMI-8226 leukemia
[2] = test system: M14 melanoma
[3] = test system: MOLT-4 leukemia
[4] = test system: COLO 205 colon
[5] = test system: UACC-62 melanoma
[6] = test system: PC-3 prostate
[7] = test system: LOX IMVI melanoma
[8] = test system: A549 NSCLC
[9] = test system: HS 578T breast
[10] = test system: KM12 colon

With `CC1/C=C/C=C/C=C/C=C/C=C/C=C/C=C/C(O[C@@H]2O[C@H](C)[C@H](O)[C@@H](O)[C@@H]2N)CC(O)C(C(=O)O)C(O)CC(=O)CC(O)CC(O)CC(O)CC(=O)CCCC(=O)CC(=O)OC1C(C)CC(C)C(O)CC(=O)c1ccc(N)cc1` (stereo partly specified) the GI50 [1] was 74.8 nM and 238 nM, the TGI [1] was 171 nM and 682 nM and the GI50 [2] was 57.4 nM and 197 nM. The TGI [2] was 110 nM and 416 nM, the GI50 [3] was 67.9 nM and 172 nM and the TGI [3] was 143 nM and 402 nM. For the same compound, the GI50 [4] was 559 nM, the TGI [4] was 1720 nM and the GI50 [5] was 57.6 nM and 203 nM. The TGI [5] was 109 nM and 458 nM, the GI50 [6] was 64.6 nM and 222 nM and the TGI [6] was 137 nM and 552 nM. For the same compound, the GI50 [7] was 55.5 nM and 166 nM, the TGI [7] was 101 nM and 305 nM and the GI50 [8] was 56.1 nM and 169 nM. For the same compound, the TGI [8] was 101 nM and 305 nM, the GI50 [9] was 76.5 nM and 329 nM and the TGI [9] was 211 nM and 1580 nM. For the same compound, the GI50 [10] was 69.4 nM and 574 nM.

With `CC(=O)OC1CC(n2cc(F)c(=O)[nH]c2=O)OC1CO` (stereo unspecified) the TGI [1] was greater than 100000 nM, the TGI [2] was 45600 nM and the TGI [3] was greater than 100000 nM. The TGI [4] was greater than 100000 nM, the TGI [5] was greater than 22400 nM and the TGI [6] was greater than 100000 nM. For the same compound, the TGI [7] was greater than 63800 nM, the TGI [8] was greater than 90800 nM and the TGI [9] was greater than 100000 nM. It also gave a TGI [10] greater than 100000 nM.

Work on `CC(C)C1OC(=O)C=C1Sc1ccccc1` (stereo unspecified) yielded a TGI [1] greater than 100000 nM, a TGI [2] greater than 100000 nM and a TGI [3] greater than 100000 nM. For the same compound, the TGI [4] was greater than 100000 nM, the TGI [5] was greater than 100000 nM and the TGI [6] was greater than 100000 nM. It also gave a TGI [7] greater than 100000 nM, a TGI [8] greater than 100000 nM and a TGI [9] greater than 100000 nM. It also gave a TGI [10] greater than 100000 nM.

`CC(C)CCOc1ccc(-c2n[nH]c(C(F)(F)F)c2-c2cncc(C#N)c2)c(O)c1` was tested, and the GI50 [1] was 697 nM, the TGI [1] was 4650 nM and the GI50 [2] was 2490 nM. It also gave a TGI [2] of 9130 nM, a GI50 [3] of 2470 nM and a TGI [3] of 12700 nM. It also gave a GI50 [4] of 1680 nM, a TGI [4] of 3140 nM and a GI50 [5] of 1220 nM. For the same compound, the TGI [5] was 5380 nM, the GI50 [6] was 2120 nM and the TGI [6] was greater than 100000 nM. For the same compound, the GI50 [7] was 2770 nM, the TGI [7] was 8980 nM and the GI50 [8] was 2240 nM. For the same compound, the TGI [8] was 12000 nM, the GI50 [9] was 2910 nM and the TGI [9] was 21400 nM. For the same compound, the GI50 [10] was 3330 nM and the TGI [10] was greater than 100000 nM.

Work on `CCNCC(=O)O[C@]1(CC)C(=O)OCc2c1cc1n(c2=O)Cc2cc3ccccc3nc2-1` yielded a TGI [1] of 4070 nM, a TGI [2] of 13700 nM and a TGI [3] of 159 nM. For the same compound, the TGI [4] was 16500 nM, the TGI [5] was 677 nM and the TGI [6] was greater than 100000 nM. The TGI [7] was 1220 nM, the TGI [8] was 13500 nM and the TGI [9] was greater than 100000 nM. For the same compound, the TGI [10] was 13400 nM.

In the case of `CCOC(=O)c1sc2nc3sc(N=Nc4ccc(Cl)cc4)c(O)n3c(=S)c2c1C`, the GI50 [1] is reported as 21400 nM, the TGI [1] is reported as greater than 100000 nM and the GI50 [2] is reported as 33200 nM. For the same compound, the TGI [2] was greater than 100000 nM, the GI50 [3] was greater than 100000 nM and the TGI [3] was greater than 100000 nM. The GI50 [4] was 17700 nM, the TGI [4] was greater than 100000 nM and the GI50 [5] was 13000 nM. For the same compound, the TGI [5] was 32500 nM, the GI50 [6] was 21300 nM and the TGI [6] was greater than 100000 nM. For the same compound, the GI50 [7] was 26100 nM, the TGI [7] was 87100 nM and the GI50 [8] was 35000 nM. For the same compound, the TGI [8] was greater than 100000 nM, the GI50 [9] was 23800 nM and the TGI [9] was 68400 nM. The GI50 [10] was 31200 nM and the TGI [10] was greater than 100000 nM.

With `NS(=O)(=O)c1cc2c(cc1Cl)NC(Cc1ccccc1)NS2(=O)=O` (stereo unspecified) the TGI [1] was greater than 100000 nM, the TGI [2] was greater than 100000 nM and the TGI [4] was greater than 100000 nM. The TGI [5] was greater than 100000 nM, the TGI [6] was greater than 100000 nM and the TGI [7] was greater than 100000 nM. The TGI [8] was greater than 100000 nM, the TGI [9] was greater than 100000 nM and the TGI [10] was greater than 100000 nM.

In the case of `NC(=NCCCOc1ccc(Cl)cc1)Nc1ccc(Cl)cc1`, the GI50 [1] is reported as 2100 nM, the TGI [1] is reported as 4660 nM and the GI50 [2] is reported as 1670 nM. It also gave a TGI [2] of 3390 nM, a GI50 [3] of 1660 nM and a TGI [3] of 4660 nM. The GI50 [4] was 1170 nM, the TGI [4] was 2750 nM and the GI50 [5] was 1880 nM. The TGI [5] was 3940 nM, the GI50 [6] was 2100 nM and the TGI [6] was 6290 nM. The GI50 [7] was 1600 nM, the TGI [7] was 2980 nM and the GI50 [8] was 3480 nM. The TGI [8] was 12700 nM, the GI50 [9] was 3390 nM and the TGI [9] was 14000 nM.

`CN(C)c1ccc(C(=C2C=CC(=[N+](C)C)C=C2)c2ccc(N(C)C)cc2)cc1` (tested in a mixture with another compound) was tested, and the GI50 [1] was 40 nM, the GI50 [2] was 88 nM and the GI50 [3] was 293 nM. The TGI [3] was 5670 nM, the GI50 [4] was 23.2 nM and the TGI [4] was 51.9 nM. For the same compound, the TGI [5] was 1240 nM, the GI50 [6] was 36.8 nM and the TGI [6] was 1600 nM. The GI50 [8] was 32.6 nM, the TGI [8] was 688 nM and the GI50 [9] was 47.9 nM. For the same compound, the TGI [9] was 1900 nM, the GI50 [10] was 37.9 nM and the TGI [10] was 172 nM.

Work on `CC(=O)c1ccc(NC(=O)CSc2nnc(-c3cc(-c4ccc(C)cc4)nc4ccccc34)o2)cc1` yielded a GI50 [1] of 3370 nM, a TGI [1] greater than 100000 nM and a GI50 [2] of 5650 nM. The TGI [2] was greater than 100000 nM, the GI50 [3] was 3310 nM and the TGI [3] was greater than 100000 nM. For the same compound, the GI50 [4] was 6540 nM, the TGI [4] was greater than 100000 nM and the GI50 [5] was 24200 nM. The TGI [5] was greater than 100000 nM, the GI50 [6] was 4360 nM and the TGI [6] was greater than 100000 nM. For the same compound, the GI50 [7] was 2640 nM, the TGI [7] was 9090 nM and the GI50 [8] was 3010 nM. It also gave a TGI [8] greater than 100000 nM, a GI50 [9] of 4060 nM and a TGI [9] of 39400 nM.

For `CC[C@H]1CN2CCc3cc(OC)c(OC)cc3[C@@H]2C[C@@H]1C[C@H]1NCCc2cc(O)c(OC)cc21`, the TGI [1] was 77.9 nM and 54.2 nM, the GI50 [2] was 7.87 nM and the TGI [2] was 22.2 nM and 15 nM. For the same compound, the TGI [3] was 74 nM and 323 nM, the TGI [4] was 18.7 nM and the TGI [5] was 72.5 nM and 24.7 nM and 105 nM. It also gave a GI50 [6] of 24.3 nM, a GI50 [7] of 4.37 nM and a TGI [7] of 13.4 nM. For the same compound, the TGI [8] was 65.2 nM and 52.7 nM and 355 nM, the GI50 [9] was 13.8 nM and the TGI [9] was 53.9 nM.

`CCCCCCCC/C=C/CCCCCCCC1=NCC[N+]1(CCO)CCO` gave a GI50 [1] of 2710 nM, a TGI [1] of 10800 nM and a GI50 [2] of 2260 nM. For the same compound, the TGI [2] was 5770 nM, the GI50 [3] was 2230 nM and the TGI [3] was 6580 nM. For the same compound, the GI50 [4] was 1980 nM, the TGI [4] was 4910 nM and the GI50 [5] was 5000 nM. For the same compound, the TGI [5] was 21400 nM, the GI50 [6] was 1970 nM and the TGI [6] was 6170 nM. It also gave a GI50 [8] of 2770 nM, a TGI [8] of 10900 nM and a GI50 [9] of 2160 nM. It also gave a TGI [9] of 7660 nM, a GI50 [10] of 1870 nM and a TGI [10] of 3610 nM.

`COc1cc(C(=O)/C=C/c2cc(C(=O)c3cc(OC)c(OC)c(OC)c3)ccc2OC)ccc1N` was tested, and the GI50 [1] was 419 nM, the TGI [1] was 14100 nM and the GI50 [2] was 752 nM. For the same compound, the TGI [2] was 3060 nM, the GI50 [3] was 616 nM and the TGI [3] was greater than 100000 nM. For the same compound, the GI50 [5] was 1170 nM, the TGI [5] was 2660 nM and the GI50 [6] was 1800 nM. The TGI [6] was 7400 nM, the GI50 [7] was 740 nM and the TGI [7] was 2030 nM. The GI50 [8] was 3200 nM, the TGI [8] was 29000 nM and the GI50 [9] was 1390 nM. It also gave a TGI [9] greater than 100000 nM, a GI50 [10] of 552 nM and a TGI [10] of 5370 nM.

Work on `O=P(O)(O)c1ccccc1` (tested in a mixture with another compound) yielded a TGI [1] greater than 100000 nM, a TGI [2] greater than 100000 nM and a TGI [4] greater than 100000 nM. It also gave a TGI [5] greater than 100000 nM, a TGI [6] greater than 100000 nM and a TGI [7] greater than 100000 nM. The TGI [8] was greater than 100000 nM, the TGI [9] was greater than 100000 nM and the TGI [10] was greater than 100000 nM.

`CCN(CC)CCCNc1cccc2c(SCc3ccccc3)ccnc12` gave a GI50 [1] of 1240 nM, a TGI [1] of 3370 nM and a GI50 [2] of 1960 nM. For the same compound, the TGI [2] was 3600 nM, the GI50 [4] was 1840 nM and the TGI [4] was 3440 nM. It also gave a GI50 [5] of 1740 nM, a TGI [5] of 3370 nM and a GI50 [6] of 1860 nM. It also gave a TGI [6] of 4880 nM, a GI50 [8] of 1730 nM and a TGI [8] of 3330 nM. For the same compound, the GI50 [9] was 2200 nM, the TGI [9] was 6310 nM and the GI50 [10] was 1750 nM. The TGI [10] was 3380 nM.

`CCSCC(N)C(=O)O` (stereo unspecified) showed a TGI [1] greater than 100000 nM, a TGI [2] greater than 100000 nM and a TGI [4] greater than 100000 nM. It also gave a TGI [5] greater than 100000 nM, a TGI [6] greater than 100000 nM and a TGI [7] greater than 100000 nM. It also gave a TGI [8] greater than 100000 nM, a TGI [9] greater than 100000 nM and a TGI [10] greater than 100000 nM.
